The structures appear in SMILES notation.

From PMC11439681, “The identification of potent dual-target monopolar spindle 1 (MPS1) and histone deacetylase 8 (HDAC8) inhibitors through pharmacophore modeling, molecular docking, molecular dynamics simulations, and biological evaluation” (Frontiers in Pharmacology, 2024) come the findings set out here.

One experiment addresses T1, MPS1 (Homo sapiens, UniProt P33981).
T1 construct: purchased Abcam
T1 sequence (P33981 1-857): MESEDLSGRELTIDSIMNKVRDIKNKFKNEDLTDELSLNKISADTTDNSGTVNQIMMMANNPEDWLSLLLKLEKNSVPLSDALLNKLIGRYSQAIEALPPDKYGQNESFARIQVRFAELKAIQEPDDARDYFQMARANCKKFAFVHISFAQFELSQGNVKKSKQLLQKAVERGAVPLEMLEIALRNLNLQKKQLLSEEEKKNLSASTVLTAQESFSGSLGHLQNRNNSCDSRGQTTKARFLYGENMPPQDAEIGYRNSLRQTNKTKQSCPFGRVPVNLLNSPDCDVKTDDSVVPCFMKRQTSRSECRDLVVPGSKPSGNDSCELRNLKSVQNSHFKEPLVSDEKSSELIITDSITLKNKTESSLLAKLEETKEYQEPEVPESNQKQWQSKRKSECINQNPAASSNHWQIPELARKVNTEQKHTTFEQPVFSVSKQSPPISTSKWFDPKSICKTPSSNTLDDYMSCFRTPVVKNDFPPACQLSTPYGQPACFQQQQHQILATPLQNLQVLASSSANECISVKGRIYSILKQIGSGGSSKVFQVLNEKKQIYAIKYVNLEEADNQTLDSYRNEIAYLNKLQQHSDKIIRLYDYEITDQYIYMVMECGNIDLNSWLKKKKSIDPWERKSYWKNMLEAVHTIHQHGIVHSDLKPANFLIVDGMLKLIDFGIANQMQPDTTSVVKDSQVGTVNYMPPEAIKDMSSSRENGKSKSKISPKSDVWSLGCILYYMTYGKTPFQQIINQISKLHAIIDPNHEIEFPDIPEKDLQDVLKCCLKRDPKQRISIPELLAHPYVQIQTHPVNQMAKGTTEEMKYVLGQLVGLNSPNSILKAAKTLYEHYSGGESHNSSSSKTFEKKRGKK
In words: In vitro MPS1 inhibitory assay. Format: biochemical. On the procedure: The methodology is as previously described ([Naud et al., 2013]). In brief, the experiment was conducted using 384-well black low-volume plates, which were loaded with MPS1 (concentration range of 3–12.5 nM), 5 μM fluorescence-labelled peptide (sequence: 5FAM-[…]-CONH2), 10 μM ATP, 1% (v/v) DMSO or the test compound (concentrations in 1% (v/v) DMSO ranged from 0.25 to 100 μM), and assay buffer. […]. The plate was read on a Caliper EZ reader II (PerkinElmer Life Sciences, Waltham, MA, United States). […]

The test system of a further experiment is Ace-K62 of PKM2. Put plainly: Gene expression analysis of Ace-K62 of PKM2 in HepG2 cells. Format: cell-based, human. Particulars: 20 h, 0.25, 1 and 5 μM. The method, then:
(§1) Total RNA was extracted after the indicated treatments using the RNeasy Mini Kit (cat. no. 74106; QIAGEN, Hilden, Germany) following the manufacturer’s protocol. The concentration of RNA was measured on a plate reader, and then the extracted RNA was converted to cDNA using a High-Capacity RNA-to-cDNA kit from Applied Biosystems (Thermo Fisher Scientific, Inc.). Quantitative real-time polymerase chain reaction was performed in triplicate in a 96-well optical PCR plate using a QuantStudio Real-Time PCR System. Gene expression levels were evaluated using the comparative CT method. Graphical representations of the data were generated by GraphPad Prism 8.
(§2) Previous studies indicate that MPS1 inhibitor exerts its antitumor effects by downregulating the levels of phosphorylated histone H3 ([Naud et al., 2013]), while HDAC8 inhibitor achieves its antitumor activity by upregulating lysine residue 62 acetylation (Ace-K62) levels of pyruvate kinase M2 (PKM2) ([Zhang et al., 2020]). The gene expression of P-histone H3 and Ace-K62 was detected in HepG2 cells with the treatment of MPH-5 for 20 h (at the concentration of 0, 0.25, 1, and 5 μM, respectively). […] As the concentration of MPH-5 increases, the inhibitory effect on P-histone H3 and the promotional effect on Ace-K62 become more pronounced.

In the next experiment the test system is P-histone H3. In words: Gene expression analysis of P-histone H3 in HepG2 cells. It counts as cell-based, human. The note with it: 20 h, 0.25, 1 and 5 μM. On the procedure:
as §1, §2

For a further experiment, the system named is BEL7402. In words: MTT cytotoxicity assay, BEL7402. It counts as cell-based. The note with it: Homo sapiens, Bel-7402, 72 h cell treatment. The method, then:
(§3) The cells (5 × 10^4 cells/well) were incubated overnight in 96-well plates. A series of solutions containing varying concentrations of inhibitors were added and incubated at 37°C for a period of 72 h. Subsequently, the culture medium was removed, followed by a subsequent incubation of the cells with a 5 mg/mL MTT stock solution for 4 h. After centrifugation, the precipitate was solubilized in DMSO and gently shaken for 15 min. Finally, the absorbance measurement at 570 nm was completed using a microplate reader. Data analysis was performed using GraphPad Prism 6.0 software.
(Tetrazolium assays rely on reduction of a dye to a coloured formazan, in cell work by metabolically active cells.)

Another experiment deals with MCF10A. In words: MTT cytotoxicity assay, MCF10A normal cells. It counts as cell-based. The note with it: Homo sapiens, MCF-10A, 72 h cell treatment. On the procedure:
as §3

For the next experiment, the system named is BEAS-2B. Put plainly: MTT cytotoxicity assay, BEAS-2B normal cells. The note with it: Homo sapiens, 72 h cell treatment. It counts as cell-based. The method, then: as §3
The next experiment has as its target T2, HDAC8 (Homo sapiens, UniProt Q9BY41).
T2 construct: purchased Abcam
T2 sequence (Q9BY41 1-377): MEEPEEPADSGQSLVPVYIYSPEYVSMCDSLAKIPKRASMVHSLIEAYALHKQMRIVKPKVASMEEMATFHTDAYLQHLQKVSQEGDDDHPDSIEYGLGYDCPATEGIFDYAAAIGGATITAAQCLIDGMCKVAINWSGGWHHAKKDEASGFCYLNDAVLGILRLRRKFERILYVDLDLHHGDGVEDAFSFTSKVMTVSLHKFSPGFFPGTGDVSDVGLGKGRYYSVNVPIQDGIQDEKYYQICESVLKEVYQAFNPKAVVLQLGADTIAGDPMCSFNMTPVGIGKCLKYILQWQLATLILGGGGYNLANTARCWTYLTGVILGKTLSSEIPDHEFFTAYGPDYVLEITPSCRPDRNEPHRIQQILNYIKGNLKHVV
In words: In vitro HDAC8 inhibitory assay. It counts as biochemical. The method, then: Inhibition of HDAC8 was determined in 96-well plates. […] The assessment of fluorescence intensity was executed at 390 nm and 460 nm via a microplate reader.

A further experiment has as its system Huh-1. Put plainly: MTT cytotoxicity assay, Huh-1. Format: cell-based. The note with it: Homo sapiens, 72 h cell treatment. The method, then: as §3
The subject of another experiment is Li-7. In words: MTT cytotoxicity assay, Li-7. The note with it: Homo sapiens, 72 h cell treatment. It counts as cell-based. The method, then:
as §3

The IC50 is the concentration that gives 50% inhibition. The low end stands for greater potency in that assay, the high end for weaker potency in that assay. Regarding `Cn1cc(-c2cc3cnc(Nc4ccc(-c5cncn5/C=C/C(=O)NO)cc4Cl)cc3n2C(=O)OC(C)(C)C)cn1` [MPH-5], the half-maximal inhibitory concentration (IC50) is 4.52 ± 0.21 nM at MPS1; 0.86 µM in the experiment with BEL7402; > 10 µM in the experiment with MCF10A; > 10 µM with BEAS-2B; 6.07 ± 0.37 nM on HDAC8 (90 min at 37°C); 0.32 µM in the experiment with Huh-1. Besides, the IC50 in the experiment on Li-7 is 0.64 µM. Further, the “MPS1 IC50 of MPH-5 relative to AZ3146” value on MPS1 (vs AZ3146) is “about 8 fold”. For the same molecule, in the experiment with Ace-K62 of PKM2, the “K62 acetylation levels (Ace-K62 of PKM2)” value was “dose-dependent regulation”. In addition, the “phosphorylated histone H3 levels” value with P-histone H3 is reported as “dose-dependent regulation”. Also, at HDAC8 (vs belinostat), the “HDAC8 IC50 of MPH-5 relative to belinostat” value is on record as “about 4 fold”.
